Reference: PubChem BioAssay (NCI)
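Step 1: Grow cells in 96-well plates. Step 2: Expose to compound for 48 hours at 5 concentrations. Step 3: Interpolate endpoints linearly; if unreached, use highest concentration. TGI: total growth inhibition.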

system: OVCAR-4 ovarian; experiment: NCI tumour cell line growth inhibition, 48 h

Row | SMILES | TGI [µM]
1 | COC(=O)[C@@H]1CCc2nc3ccccc3c(=O)n21 | > 100
2 | N#CC1=C(N)OC2=C(CCCc3ccc([N+](=O)[O-])cc32)C1c1ccccc1 (centres undefined) | > 100
3 | O=C1CC(=O)c2c(N3CCCC3)sc(N3CCCC3)c21 | > 100

system: A498 renal; experiment: NCI tumour cell line growth inhibition, 48 h

Row | SMILES | TGI [µM]
4 | COC(=O)[C@@H]1CCc2nc3ccccc3c(=O)n21 | > 100
5 | N#CC1=C(N)OC2=C(CCCc3ccc([N+](=O)[O-])cc32)C1c1ccccc1 (centres undefined) | 10.5
6 | O=C1CC(=O)c2c(N3CCCC3)sc(N3CCCC3)c21 | > 100
7 | CN(C)c1nc2nonc2nc1Nc1ccccc1 | > 100

system: SK-MEL-2 melanoma; experiment: NCI tumour cell line growth inhibition, 48 h

Row | SMILES | TGI [µM]
8 | CC1(C)OC(C(C)(C)O)C(C(C)(C)O)O1 (centres undefined) | > 100
9 | COC(=O)[C@@H]1CCc2nc3ccccc3c(=O)n21 | > 100
10 | N#CC1=C(N)OC2=C(CCCc3ccc([N+](=O)[O-])cc32)C1c1ccccc1 (centres undefined) | 34.1
11 | O=C1CC(=O)c2c(N3CCCC3)sc(N3CCCC3)c21 | > 100
12 | CN(C)c1nc2nonc2nc1Nc1ccccc1 | > 100

system: M14 melanoma; experiment: NCI tumour cell line growth inhibition, 48 h

Row | SMILES | TGI [µM]
13 | CC1(C)OC(C(C)(C)O)C(C(C)(C)O)O1 (centres undefined) | > 100
14 | COC(=O)[C@@H]1CCc2nc3ccccc3c(=O)n21 | > 100
15 | N#CC1=C(N)OC2=C(CCCc3ccc([N+](=O)[O-])cc32)C1c1ccccc1 (centres undefined) | 12.4
16 | O=C1CC(=O)c2c(N3CCCC3)sc(N3CCCC3)c21 | > 100
17 | CN(C)c1nc2nonc2nc1Nc1ccccc1 | > 100

system: NCI-H226 lung; experiment: NCI tumour cell line growth inhibition, 48 h

Row | SMILES | TGI [µM]
18 | CC1(C)OC(C(C)(C)O)C(C(C)(C)O)O1 (centres undefined) | > 100
19 | COC(=O)[C@@H]1CCc2nc3ccccc3c(=O)n21 | > 100
20 | N#CC1=C(N)OC2=C(CCCc3ccc([N+](=O)[O-])cc32)C1c1ccccc1 (centres undefined) | 31
21 | O=C1CC(=O)c2c(N3CCCC3)sc(N3CCCC3)c21 | > 100
22 | CN(C)c1nc2nonc2nc1Nc1ccccc1 | > 100

system: CCRF-CEM leukemia; experiment: NCI tumour cell line growth inhibition, 48 h

Row | SMILES | TGI [µM]
23 | CC1(C)OC(C(C)(C)O)C(C(C)(C)O)O1 (centres undefined) | > 100
24 | COC(=O)[C@@H]1CCc2nc3ccccc3c(=O)n21 | > 100
25 | O=C1CC(=O)c2c(N3CCCC3)sc(N3CCCC3)c21 | > 100
26 | CN(C)c1nc2nonc2nc1Nc1ccccc1 | > 100

system: BT-549 breast; experiment: NCI tumour cell line growth inhibition, 48 h

Row | SMILES | TGI [µM]
27 | CC1(C)OC(C(C)(C)O)C(C(C)(C)O)O1 (centres undefined) | > 100
28 | COC(=O)[C@@H]1CCc2nc3ccccc3c(=O)n21 | > 100
29 | N#CC1=C(N)OC2=C(CCCc3ccc([N+](=O)[O-])cc32)C1c1ccccc1 (centres undefined) | 29.7
30 | O=C1CC(=O)c2c(N3CCCC3)sc(N3CCCC3)c21 | > 100
31 | CN(C)c1nc2nonc2nc1Nc1ccccc1 | > 100

system: SF-268 CNS; experiment: NCI tumour cell line growth inhibition, 48 h

Row | SMILES | TGI [µM]
32 | CC1(C)OC(C(C)(C)O)C(C(C)(C)O)O1 (centres undefined) | > 100
33 | COC(=O)[C@@H]1CCc2nc3ccccc3c(=O)n21 | > 100
34 | N#CC1=C(N)OC2=C(CCCc3ccc([N+](=O)[O-])cc32)C1c1ccccc1 (centres undefined) | 21.9
35 | O=C1CC(=O)c2c(N3CCCC3)sc(N3CCCC3)c21 | > 100
36 | CN(C)c1nc2nonc2nc1Nc1ccccc1 | > 100

system: LOX IMVI melanoma; experiment: NCI tumour cell line growth inhibition, 48 h

Row | SMILES | TGI [µM]
37 | CC1(C)OC(C(C)(C)O)C(C(C)(C)O)O1 (centres undefined) | > 100
38 | COC(=O)[C@@H]1CCc2nc3ccccc3c(=O)n21 | > 100
39 | N#CC1=C(N)OC2=C(CCCc3ccc([N+](=O)[O-])cc32)C1c1ccccc1 (centres undefined) | 19.6
40 | O=C1CC(=O)c2c(N3CCCC3)sc(N3CCCC3)c21 | > 100
41 | CN(C)c1nc2nonc2nc1Nc1ccccc1 | > 100

system: A549 NSCLC; experiment: NCI tumour cell line growth inhibition, 48 h

Row | SMILES | TGI [µM]
42 | CC1(C)OC(C(C)(C)O)C(C(C)(C)O)O1 (centres undefined) | > 100
43 | COC(=O)[C@@H]1CCc2nc3ccccc3c(=O)n21 | > 100
44 | N#CC1=C(N)OC2=C(CCCc3ccc([N+](=O)[O-])cc32)C1c1ccccc1 (centres undefined) | > 100
45 | O=C1CC(=O)c2c(N3CCCC3)sc(N3CCCC3)c21 | > 100
46 | CN(C)c1nc2nonc2nc1Nc1ccccc1 | > 100

system: RPMI-8226 leukemia; experiment: NCI tumour cell line growth inhibition, 48 h

Row | SMILES | TGI [µM]
47 | CC1(C)OC(C(C)(C)O)C(C(C)(C)O)O1 (centres undefined) | > 100
48 | COC(=O)[C@@H]1CCc2nc3ccccc3c(=O)n21 | > 100
49 | N#CC1=C(N)OC2=C(CCCc3ccc([N+](=O)[O-])cc32)C1c1ccccc1 (centres undefined) | 10.9
50 | O=C1CC(=O)c2c(N3CCCC3)sc(N3CCCC3)c21 | > 100
51 | CN(C)c1nc2nonc2nc1Nc1ccccc1 | > 100

system: UACC-62 melanoma; experiment: NCI tumour cell line growth inhibition, 48 h

Row | SMILES | TGI [µM]
52 | CC1(C)OC(C(C)(C)O)C(C(C)(C)O)O1 (centres undefined) | > 100
53 | COC(=O)[C@@H]1CCc2nc3ccccc3c(=O)n21 | > 100
54 | N#CC1=C(N)OC2=C(CCCc3ccc([N+](=O)[O-])cc32)C1c1ccccc1 (centres undefined) | 6.12
55 | O=C1CC(=O)c2c(N3CCCC3)sc(N3CCCC3)c21 | > 100
56 | CN(C)c1nc2nonc2nc1Nc1ccccc1 | > 100

system: UO-31 renal; experiment: NCI tumour cell line growth inhibition, 48 h

Row | SMILES | TGI [µM]
57 | CC1(C)OC(C(C)(C)O)C(C(C)(C)O)O1 (centres undefined) | > 100
58 | COC(=O)[C@@H]1CCc2nc3ccccc3c(=O)n21 | > 100
59 | N#CC1=C(N)OC2=C(CCCc3ccc([N+](=O)[O-])cc32)C1c1ccccc1 (centres undefined) | 20.9
60 | O=C1CC(=O)c2c(N3CCCC3)sc(N3CCCC3)c21 | > 100
61 | CN(C)c1nc2nonc2nc1Nc1ccccc1 | > 100

system: OVCAR-3 ovarian; experiment: NCI tumour cell line growth inhibition, 48 h

Row | SMILES | TGI [µM]
62 | COC(=O)[C@@H]1CCc2nc3ccccc3c(=O)n21 | > 100
63 | N#CC1=C(N)OC2=C(CCCc3ccc([N+](=O)[O-])cc32)C1c1ccccc1 (centres undefined) | 6.33
64 | O=C1CC(=O)c2c(N3CCCC3)sc(N3CCCC3)c21 | > 100

system: SK-MEL-5 melanoma; experiment: NCI tumour cell line growth inhibition, 48 h

Row | SMILES | TGI [µM]
65 | CC1(C)OC(C(C)(C)O)C(C(C)(C)O)O1 (centres undefined) | > 100
66 | COC(=O)[C@@H]1CCc2nc3ccccc3c(=O)n21 | > 100
67 | N#CC1=C(N)OC2=C(CCCc3ccc([N+](=O)[O-])cc32)C1c1ccccc1 (centres undefined) | 13
68 | O=C1CC(=O)c2c(N3CCCC3)sc(N3CCCC3)c21 | > 100
69 | CN(C)c1nc2nonc2nc1Nc1ccccc1 | > 100
